Source: US20190160084A1, “METHODS FOR THE TREATMENT OF CANCER USING MEGLUMINE” (Dynamis Pharmaceuticals, Inc., priority 2016, published 2019)

What was measured:
THP-1 cells = assay: LPS-induced cytokine levels in media of THP-1 cells (Bio-Plex immunoassay); type: cell-based, human; conditions: 25 ng LPS, 40 or 80 mM meglumine hydrochloride, 24 hours
Experimental: THP-1 cells (human acute monocytic leukemia) were grown in a 24-well polystyrene plate in 1 ml of RPMI media with 10% fetal bovine serum. Cells were treated with 25 ng of lipopolysaccharide (LPS) (Sigma) in the presence or absence of 40 or 80 mM meglumine hydrochloride. After 24 hours, the media was centrifuged to remove the cells and analyzed for cytokine content using a Bio-Plex® immunoassay (Bio-Rad). The LPS induced levels of IL-17, IL-8, MIP-1 alpha, MIP-1 beta, IL-9 and IP-10 were decreased in the presence of meglumine (FIG. 5).

skin tumors = conditions: DFMO given during the promotion phase; cited from earlier work
[1] = tested on: skin tumors in DMBA-initiated K6/ODC transgenic mice; assay: Skin tumor formation and growth in DMBA-initiated K6/ODC transgenic mice, meglumine in drinking water; type: in vivo
Experimental: K6/ODC transgenic mice are highly susceptible to developing skin tumors following a single treatment with a low subthreshold dose of the carcinogen DMBA. The effect of oral administration of meglumine in the drinking water was tested on the formation and growth of skin tumors in DMBA-initiated K6/ODC transgenic mice and their normal littermates. Four day old K6/ODC transgenic mice and their normal littermates were initiated with a single topical application of 300 nmol DMBA in 50 μl acetone.
(§1) Upon weaning, K6/ODC transgenic mice and their normal littermates were divided into two treatment groups where they received ad lib either tap water or water with 37.5 mM meglumine (Sigma Chemical Co.) in their drinking water. Meglumine-containing water was changed twice a week. […] Mice were monitored for tumor development. Tumor growth was assessed morphometrically using calipers, and tumor volumes were calculated according to the formula V (mm^3)=π/6×A×B^2 (A is larger diameter, B is the smaller diameter) (Buzzai et al.).

[2] = Tolerability of meglumine in the drinking water (water consumption, adverse effects); type: in vivo; conditions: 37.5 mM meglumine in drinking water ad lib; K6/ODC transgenic mice and normal littermates
Experimental: as §1

[3] = K6/ODC transgenic mice, compared to control water, monitored 4 months

Q: Which “LPS induced level of IL-8” value (THP-1 cells) does the source give for CNC[C@H](O)[C@@H](O)[C@H](O)[C@H](O)CO.Cl [meglumine hydrochloride] here?
A: Its value is “decreased”.

Q: And the “LPS induced level of IL-9” value (THP-1 cells)?
A: The value was “decreased”.

Q: What about the “LPS induced level of IL-17” value (THP-1 cells) of the same compound?
A: Its value is “decreased”.

Q: What about the “LPS induced level of IP-10” value (THP-1 cells) of the same compound?
A: Its value is “decreased”.

Q: What about the “LPS induced level of MIP-1 alpha” value (THP-1 cells) of the same compound?
A: The value was “decreased”.

Q: What about the “LPS induced level of MIP-1 beta” value (THP-1 cells) of the same compound?
A: The value was “decreased”.

Q: For NCCC[C@](N)(C(=O)O)C(F)F [DFMO, α-difluoromethylornithine], which “development of skin tumors” value (skin tumors) is on record?
A: Its value is “inhibits”.

Q: With CNC[C@H](O)[C@@H](O)[C@H](O)[C@H](O)CO [meglumine, (2R,3R,4R,5S)-6-methylaminohexane-1,2,3,4,5-pentol] as the compound, how does the “age at which all mice had skin tumors” value ([1]; K6/ODC transgenic mice (6/6), 37.5 mM meglumine in drinking water, control (5/5): 50 days) read?
A: Its value is 73 days of age.

Q: And the “age at which skin tumors first developed” value ([1]; K6/ODC transgenic mice, 37.5 mM meglumine in drinking water, control tap water: 45 days)?
A: Its value is 60 days of age.

Q: And the “numbers of skin tumors” value ([1]; K6/ODC transgenic mice, at any given age, compared to control tap water, monitored 4 months)?
A: The value was “fewer”.

Q: What about the “cumulative tumor burden (average total tumor volume per mouse)” value [1, 3] of the same compound?
A: Its value is “lower”.

Q: And the tumor growth [1, 3]?
A: The tumor growth was “slowed”.

Q: What about the “skin tumor development in normal littermates” value ([1]; normal littermates n=10, with or without meglumine-supplemented water, single subthreshold dose of DMBA) of the same compound?
A: The value was “no normal littermates”.

Q: What about the “adverse effects (weight loss, lethargy, ruffed fur, diarrhea, or general malaise)” value [2] of the same compound?
A: Its value is “nor did it have any adverse effects”.

Q: What about the consumption of water [2] of the same compound?
A: The consumption of water was “did not affect”.
